Values quoted from earlier work in patent US20140208977A1, “POLYDISPERSE COMPOSITIONS AND METHODS FOR ELIMINATING VOLATILE ORGANIC COMPOUNDS” (priority 2013, published 2014).

Key:
[1] = 77° F.
[2] = 25° C.

Row | Structure (SMILES) | Vapor Pressure [1] [mmHg] | Water Solubility [2] [µg/mL]
1 | C[Si]1(C)O[Si](C)(C)O[Si](C)(C)O[Si](C)(C)O[Si](C)(C)O1 [Decamethylcyclopentasiloxane] | 0.4 | –
2 | C[Si]1(C)O[Si](C)(C)O[Si](C)(C)O[Si](C)(C)O[Si](C)(C)O[Si](C)(C)O1 [Dodecamethylcyclohexasiloxane] | 0.02 | –
3 | C[Si](C)(C)O[Si](C)(C)O[Si](C)(C)O[Si](C)(C)C [Decamethyltetrasiloxane] | 0.55 | –
4 | C[Si](C)(C)O[Si](C)(C)O[Si](C)(C)C [Octamethyltrisiloxane] | 3.9 | 0.035
5 | C[Si](C)(C)O[Si](C)(C)C [Hexamethyldisiloxane] | 31 | –
6 | C[Si]1(C)O[Si](C)(C)O[Si](C)(C)O[Si](C)(C)O1 [Octamethylcyclotetrasiloxane] | 1.3 | –
7 | C[Si](C)(C)O[Si](C)(C)O[Si](C)(C)O[Si](C)(C)O[Si](C)(C)C [Dodecamethylpentasiloxane] | 0.7 | –
8 | C[Si]1(C)O[Si](C)(C)O[Si](C)(C)O1 [Hexamethylcyclotrisiloxane] | – | 1.56
